Experiments:
[1] = biological target: T1, longitudinal muscle from the intact ileum of guinea-pigs (response to histamine) (Cavia porcellus, UniProt P31389); assay: In vitro antihistaminic activity (inhibition of histamine concentration-response in isolated ileum longitudinal muscle); set-up: species or system guinea-pigs (Hartley, male); conditions: negative log of the concentration which gives a significant antihistaminic effect; guinea-pig ileum longitudinal muscle; one hour incubation with test compound; Arunlakshana and Schild method; read-out: pA2 (converted)
T1 construct: The longitudinal muscle was isolated from the intact ileum of guinea-pigs; from tissue; host or cells: longitudinal muscle of guinea-pig ileum (Hartley, male)
T1 sequence (P31389 whole entry): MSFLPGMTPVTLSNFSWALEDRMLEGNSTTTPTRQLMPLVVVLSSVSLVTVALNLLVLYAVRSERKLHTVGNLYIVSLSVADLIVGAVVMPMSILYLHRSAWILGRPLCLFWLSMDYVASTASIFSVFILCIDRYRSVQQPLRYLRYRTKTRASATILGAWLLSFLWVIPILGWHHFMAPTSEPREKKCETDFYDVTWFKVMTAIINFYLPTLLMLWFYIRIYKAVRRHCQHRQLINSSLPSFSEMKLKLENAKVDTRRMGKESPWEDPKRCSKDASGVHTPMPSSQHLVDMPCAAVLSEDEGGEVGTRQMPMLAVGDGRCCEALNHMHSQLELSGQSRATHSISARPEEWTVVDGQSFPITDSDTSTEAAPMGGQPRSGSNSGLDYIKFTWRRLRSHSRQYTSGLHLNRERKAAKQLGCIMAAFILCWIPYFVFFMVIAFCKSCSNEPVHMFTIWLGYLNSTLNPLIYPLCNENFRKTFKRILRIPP
Procedure: In vitro antihistaminic activity: The longitudinal muscle was isolated from the intact ileum of guinea-pigs (Hartley, male, 250-400 g) and placed in an organ bath under 300 mg tension. After one hour of equilibration, cumulative concentration-response curves (Van Rossum, J. M., Arch. Int. Pharmacodyn. Ther. 143, 299-330, 1963) to histamine were obtained. Following washing, the tissues were incubated for one hour with the test compound and then a second histamine concentration-response curve was run. Antihistaminic activity was determined as pA2 values by the method of Arunlakshana, O. and Schild, H. O. (Br. J. Pharmacol: 14, 48-58, 1959).

[2] = biological target: T1, longitudinal muscle from the intact ileum of guinea-pigs (response to histamine); conditions: literature value, R. B. Barlow, Introduction to Chemical Pharmacology, 2nd ed., p. 357, 1964; cited from earlier work
[3] = clinical use, most patients; Goodman and Gilman, 4th ed., p. 640, 1970; cited from earlier work

Kb [1] [nM]	SMILES	pA2 [2]	sedation and drowsiness [3]
1.58	Cc1cccc(CN2CCN(C(c3ccc(Cl)cc3)c3cccc(OCC(=O)O)c3)CC2)c1 (stereo not drawn) [G, 3-(4-Chloro-α-(4-(3-methylbenzyl)-1-piperazinyl)benzyl)phenoxyacetic acid]	–	–
398	CN1CCN(C(c2ccc(Cl)cc2)c2cccc(C(=O)O)c2)CC1 (stereo not drawn) [B, 3-(4-Chloro-α-(4-methyl-1-piperazinyl)benzyl)benzoic acid]	–	–
501	CN1CCN(C(c2ccc(Cl)cc2)c2cccc(/C=C/C(=O)O)c2)CC1 (stereo not drawn) [A, (E)-3-(4-Chloro-α-(4-methyl-1-piperazinyl)-benzyl)cinnamic acid]	–	–
2510	CN1CCN(C(c2ccc(Cl)cc2)c2ccc(C(=O)O)cc2)CC1 (stereo not drawn) [D, 4-(4-Chloro-α-(4-methyl-1-piperazinyl)benzyl)benzoic acid]	–	–
–	CN1CCN(C(c2ccccc2)c2ccc(Cl)cc2)CC1 (stereo not shown) [Chlorcyclizine, 1-(4-Chlorobenzhydryl)-4-methylpiperazine]	8.6	produces sedation and drowsiness in varying degrees in most patients
316	COc1ccc(C(c2cccc(C(=O)O)c2)N2CCN(C)CC2)cc1 (stereo not drawn) [E, 3-(4-Methoxy-α-(4-methyl-1-piperazinyl)benzyl)benzoic acid]	–	–
6.31	CC(C)(C)c1ccc(CN2CCN(C(c3ccc(Cl)cc3)c3cccc(OCC(=O)O)c3)CC2)cc1 (stereo not drawn) [H, 3-(4-Chloro-α-(4-(4-tert-butylbenzyl)-1-piperazinyl)benzyl)phenoxyacetic acid]	–	–
2510	CN1CCN(C(c2ccc(Cl)cc2)c2ccccc2C(=O)O)CC1 (stereo not drawn) [C, 2-(4-Chloro-α-(4-methyl-1-piperazinyl)benzyl)benzoic acid]	–	–
158	CN1CCN(C(c2ccc(Cl)cc2)c2cccc(OCC(=O)O)c2)CC1 (stereo not drawn) [F, 3-(4-Chloro-α-(4-methyl-1-piperazinyl)benzyl)phenoxyacetic acid]	–	–
